Experimental data: patent publication US4094980A, “N-[1-(3',4'-methylenedioxy-phenyl)-propyl-(2)]-N'-phenyl-piperazines and salts thereof” (Boehringer Ingelheim GmbH, priority 1974, dated 1978)

What was measured:
[1] = test system: adult laboratory mice of the NMRI-strain; assay: CNS-Depression: Ataxia (atactic walking); format: in vivo; details: po, mouse; dose at which ataxia occurs in 50% of the animals; Probit-method
Experimental: A statistically significant number of adult laboratory mice of the NMRI-strain are used as the test animals. The test compound is administered perorally as a suspension in tylose by means of an esophageal sound, and the treated animal is observed for evidence of atactic (uncoordinated) walking. The test is repeated at varying dosage levels, and a median effective dose (ED50) is determined by the Probit-method, i.e. the dose at which ataxia occurs in 50% of the animals.

total serum cholesterol = assay: Reduction of serum cholesterol level (total serum cholesterol, Liebermann-Burchard auto-analyzer); format: in vivo, male laboratory rats; details: rat
Experimental: 1. Reduction of serum cholesterol level
85 male laboratory rats having a body weight of about 250 gm. The animals were individually kept in Makrolon-cages under controlled conditions. Food and water were freely accessible to the animals at all times, except on the day on which the blood samples were taken.
The test compounds were administered once daily per os by means of an esophageal sound.
Determination of total cholesterol in serum (mgm/100 ml) with the auto-analyzer according to Liebermann-Burchard (see J. Levine et al, Technicon-Symposium, 1967, Vol. 1, pg. 25).
The total serum cholesterol was determined in all test animals prior to the beginning of the test (day O), as well as on the 8th, 14th and 21st day. The blood sample was taken from the retrobulbar venous plexus. The animals were fasted for about 16 hours prior to determination of the serum cholesterol.

[2] = test system: adult laboratory mice of the NMRI-strain; assay: CNS-Depression: Sliding test (loss of holding reflex on inclined glass plate); format: in vivo; details: po, mouse; dose at which 50% of animals begin to slide off the glass plate; Probit-method
Experimental: A statistically significant number of adult laboratory mice of the NMRI-strain are used as test animals. The test compound is administered perorally as a suspension in tylose by means of an esophageal sound, and the animal is placed on an inclined plate of glass. If the administered dose of the test compound has a CHS-depressing effect upon the animal, the treated mouse loses its normal holding reflex and slides off the plate. The test is repeated at varying dosage levels, and a median effective dose (ED50) is determined by the so-called Probit-method, i.e. the dose at which 50% of the test animals begin to slide off the glass plate.

[3] = day 0 (prior to the beginning of the test, baseline), group of 25 mgm/kg once daily per os
[4] = day 8, 25 mgm/kg once daily per os
[5] = day 14, 25 mgm/kg once daily per os
[6] = day 21, 25 mgm/kg once daily per os
[7] = day 0 (prior to the beginning of the test, baseline), group of 50 mgm/kg once daily per os
[8] = day 8, 50 mgm/kg once daily per os
[9] = day 14, 50 mgm/kg once daily per os
[10] = day 21, 50 mgm/kg once daily per os

In the case of `CC(Cc1ccc2c(c1)OCO2)N1CCN(c2ccc(Cl)cc2Cl)CC1` (stereo not drawn) [A, n-[1-(3,4-methylenedioxy-phenyl)-propyl-(2)]-N'-(2,4-dichloro-phenyl)-piperazine], the ED50 [1] is reported as 160 mg/kg, the “Average value of total serum cholesterol” value (total serum cholesterol; [3]) is reported as 96.7 mgm/100 ml and the “Average value of total serum cholesterol” value (total serum cholesterol; [4]) is reported as 27.5 mgm/100 ml. The “Average value of total serum cholesterol” value (total serum cholesterol; [5]) was 12.5 mgm/100 ml, the “Average value of total serum cholesterol” value (total serum cholesterol; [6]) was 13.0 mgm/100 ml and the ED50 [2] was 190 mg/kg.
With `COc1ccc(N2CCN(C(C)Cc3ccc4c(c3)OCO4)CC2)c(C)c1` (stereo not drawn) [B, n-[1-(3,4-methylenedioxy-phenyl)-propyl(2)]-N'-(2-methyl-4-methoxy-phenyl)-piperazine] the ED50 [1] was 120 mg/kg, the “Average value of total serum cholesterol” value (total serum cholesterol; [3]) was 97.9 mgm/100 ml and the “Average value of total serum cholesterol” value (total serum cholesterol; [4]) was 35.2 mgm/100 ml. The “Average value of total serum cholesterol” value (total serum cholesterol; [5]) was 21.3 mgm/100 ml, the “Average value of total serum cholesterol” value (total serum cholesterol; [6]) was 21.2 mgm/100 ml and the ED50 [2] was 960 mg/kg.
In the case of `CC(Cc1ccc2c(c1)OCO2)N1CCN(c2ccccc2Cl)CC1` (stereo not drawn) [Compound C, n-[1-(3,4-methylenedioxy-phenyl)-propyl(2)]-N'-(2-chlorophenyl)-piperazine], the ED50 [1] is reported as 2.2 mg/kg, the “Average value of total serum cholesterol” value (total serum cholesterol; [3]) is reported as 38.3 mgm/100 ml and the “Average value of total serum cholesterol” value (total serum cholesterol; [4]) is reported as 31.7 mgm/100 ml. The “Average value of total serum cholesterol” value (total serum cholesterol; [5]) was 24.3 mgm/100 ml, the “Average value of total serum cholesterol” value (total serum cholesterol; [6]) was 26.2 mgm/100 ml and the ED50 [2] was 2.2 mg/kg.
In the case of `COc1ccccc1N1CCN(C(C)Cc2ccc3c(c2)OCO3)CC1` (stereo not drawn) [Compound D], the ED50 [1] is reported as 39 mg/kg, the “Average value of total serum cholesterol” value (total serum cholesterol; [7]) is reported as 112.9 mgm/100 ml and the “Average value of total serum cholesterol” value (total serum cholesterol; [8]) is reported as 87.3 mgm/100 ml. The “Average value of total serum cholesterol” value (total serum cholesterol; [9]) was 86.3 mgm/100 ml, the “Average value of total serum cholesterol” value (total serum cholesterol; [10]) was 82.1 mgm/100 ml and the ED50 [2] was greater than 14 mg/kg.
`Cc1cccc(C)c1N1CCN(C(C)Cc2ccc3c(c2)OCO3)CC1` (stereo not drawn) [E, n-[1-(3,4-methylenedioxy-phenyl)-propyl(2)]-N'-(2,6-dimethyl-phenyl)-piperazine] was tested, and the ED50 [1] was 105 mg/kg, the “Average value of total serum cholesterol” value (total serum cholesterol; [7]) was 107.3 mgm/100 ml and the “Average value of total serum cholesterol” value (total serum cholesterol; [8]) was 71.2 mgm/100 ml. For the same compound, the “Average value of total serum cholesterol” value (total serum cholesterol; [9]) was 61.7 mgm/100 ml, the “Average value of total serum cholesterol” value (total serum cholesterol; [10]) was 63.5 mgm/100 ml and the ED50 [2] was 25 mg/kg.
